Reference: paper PMC13249053, “Mechanism of auranofin toxicity: Inhibition of tetrahydrobiopterin metabolism” (Toxicology and applied pharmacology, 2025)
Residue numbers refer to the chain shown, from its start.

Assays:
DHFR [1] = target: T1, DHFR (Rattus norvegicus, UniProt Q920D2); assay: Cellular DHFR activity: BH4 formation from BH2, PC12 cells; type: cell-based; conditions: PC12 (rat pheochromocytoma)
T1 construct: endogenous in cells; host or cells: PC12
T1 sequence (Q920D2 1-187): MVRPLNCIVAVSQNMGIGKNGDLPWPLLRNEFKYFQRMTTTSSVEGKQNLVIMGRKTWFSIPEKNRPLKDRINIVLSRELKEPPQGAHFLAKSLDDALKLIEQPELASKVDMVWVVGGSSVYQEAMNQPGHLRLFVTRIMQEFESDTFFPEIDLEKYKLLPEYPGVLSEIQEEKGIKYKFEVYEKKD
Method: (§1) The growth medium was then removed and the cells incubated with growth medium containing 100 μM sepiapterin. […] BH2 and BH4 were then analyzed on a Jasco high-performance liquid chromatography system (Easton, MD) fitted with a Maxsil-10 C18 column (250 × 4 mm; Phenomenex, Torrance, CA). […] Cell viability following drug treatments was greater than 95 %.

DHFR [2] = target: T2, DHFR (Mus musculus, UniProt P00375); assay: Cellular DHFR activity: BH4 formation from BH2, RAW264.7 cells; type: cell-based; conditions: RAW264.7 (mouse macrophage)
T2 construct: endogenous in cells; host or cells: RAW264.7
T2 sequence (P00375 1-187): T1 sequence (Q920D2 1-187) with L27P, Q85R, K99R, V115I, E155G, I170V
Method: as §1

[3] = system: BH4 formation in HaCaT cells; assay: BH4 formation from sepiapterin in intact HaCaT cells (HPLC); type: cell-based, human; conditions: intact HaCaT cells; auranofin 2 h, then 100 μM sepiapterin 3 h; read-out: IC50, inhibition of BH4 formation in intact HaCaT cells
Method: as §1
(§2) Fig. 3. Effects of auranofin on BH2 and BH4 production in intact HaCaT cells treated with sepiapterin. HaCaT cells (~1 × 10^6 cells/well in 6 well culture plates) were incubated with control medium or medium containing increasing concentrations of auranofin for 2 h followed by 100 μM sepiapterin. After an additional 3 h, BH2 and BH4 were extracted from the cells and analyzed by HPLC with fluorescence detection. Left panel: Chromatograms showing BH2 and BH4 content of control cells and cells treated with Auranofin.
Fig. 6. […] Cells were treated with control medium or medium containing MTX (1 μM, 2 h), an inhibitor of DHFR, followed by 200 μM sepiapterin (upper panel) or BH2 (lower panel). After an additional 3 h incubation, cells were rinsed with PBS; BH2 and BH4 were then extracted and analyzed by HPLC as described in the Materials and Methods.

SPR [4] = target: T3, SPR (Mus musculus, UniProt Q64105); assay: Cellular SPR activity: BH2 formation from sepiapterin in the presence of methotrexate, RAW264.7 cells; type: cell-based; conditions: RAW264.7 (mouse macrophage); with methotrexate
T3 construct: endogenous in cells; host or cells: RAW264.7
T3 sequence (Q64105 whole entry): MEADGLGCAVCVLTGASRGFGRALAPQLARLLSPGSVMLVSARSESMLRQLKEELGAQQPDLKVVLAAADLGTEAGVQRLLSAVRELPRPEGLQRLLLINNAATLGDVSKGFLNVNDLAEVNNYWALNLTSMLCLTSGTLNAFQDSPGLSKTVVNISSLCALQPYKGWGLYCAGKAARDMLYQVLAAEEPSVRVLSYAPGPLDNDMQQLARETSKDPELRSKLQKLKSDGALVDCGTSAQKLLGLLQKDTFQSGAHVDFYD
Method: as §1

SPR [5] = target: T4, SPR (Homo sapiens, UniProt P35270); assay: BH2 and BH4 production from sepiapterin in intact HaCaT cells (HPLC); type: cell-based; design: endogenous in cells; host or cells: HaCaT, Jurkat, BeWo, SKNMC, CX-1; conditions: auranofin 2 h, then 100 μM sepiapterin 3 h, read-out: IC50, inhibition of SPR (BH2+BH4 formation) in intact HaCaT cells
T4 sequence (P35270 whole entry): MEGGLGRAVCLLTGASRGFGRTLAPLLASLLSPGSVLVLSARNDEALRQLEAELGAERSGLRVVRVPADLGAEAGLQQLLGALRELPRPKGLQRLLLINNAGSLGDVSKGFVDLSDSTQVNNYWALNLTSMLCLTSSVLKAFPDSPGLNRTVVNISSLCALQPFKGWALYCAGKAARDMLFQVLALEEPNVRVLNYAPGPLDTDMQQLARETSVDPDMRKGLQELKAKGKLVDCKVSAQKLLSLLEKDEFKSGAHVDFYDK
Method: as §1, §2

SPR [6] = target: T4, SPR; assay: Chemical (menadione) redox cycling by recombinant SPR, superoxide anion formation; type: biochemical; design: made in house; conditions: acetylated cytochrome c reduction at 550 nm, pH 7.8, read-out: IC50, inhibition of chemical redox cycling (superoxide anion production) by recombinant SPR
Method: Sepiapterin reductase activity was assayed by measuring decreases in sepiapterin absorbance at 420 nm as described by Kato ([Kato, 1971]) with some modifications. Briefly, standard reaction mixes contained 100 mM potassium phosphate buffer, pH 7.0, 100 μM NADPH, 50 μM sepiapterin and 1 μg of enzyme protein in a final volume of 0.2 ml. Changes in absorbance of sepiapterin were monitored using a Spectramax M5 microplate reader (Molecular Devices, Sunnyvale, CA). […] Chemical redox cycling by SPR was assayed by measuring the formation of superoxide anion in the presence of menadione as previously described ([Yang et al., 2013]). […] Superoxide anion was measured spectrophotometrically by the reduction of acetylated cytochrome c at 550 nm. DHFR activity was measured as previously described ([Whitsett et al., 2013]) with some modifications. […] Enzyme activity was monitored by decreases in absorbance of NADPH at 340 nm using a microplate reader. […]
Fig. 5. […] SPR was measured in enzyme assays by decreases in sepiapterin absorbance at 420 nm as described in the Materials and Methods. DHFR activity in enzyme assays was measured by decreases in absorbance of NADPH at 340 nm. […] Redox cycling was measured spectrophotometrically by the reduction of acetylated cytochrome c at 550 nm during the formation of superoxide anion in enzyme assays in the presence of 100 μM menadione.

SPR [7] = target: T4, SPR; assay: Cellular SPR activity: BH2 formation from sepiapterin in the presence of methotrexate, human cell lines; type: cell-based; design: endogenous in cells; host or cells: HaCaT, Jurkat, BeWo, SKNMC, CX-1

`CC[PH](CC)(CC)[Au][S][C@@H]1O[C@H](COC(C)=O)[C@@H](OC(C)=O)[C@H](OC(C)=O)[C@H]1OC(C)=O` [auranofin, 2,3,4,6-tetra-O-acetyl-1-thio-β-D-glucopyranosato-S-triethyl phosphine gold] showed an IC50 (DHFR [1]) of 0.87 ± 0.09 µM, an IC50 (DHFR [2]) of 17.2 ± 0.63 µM and an IC50 [3] of 7.9 µM. For the same molecule, the IC50 (SPR [4]) was 21.3 ± 1.58 µM, the IC50 (SPR [5]) was 12.8 µM and the IC50 (SPR [6]) was 0.6 µM. The IC50 (SPR [7]; BeWo (human choriocarcinoma), with methotrexate, read-out: SPR IC50, BeWo cells) was 8.9 ± 0.64 µM, the IC50 (SPR [7]; CX-1 (human colon adenocarcinoma), with methotrexate, read-out: SPR IC50, CX-1 cells) was 25.1 ± 1.03 µM and the IC50 (SPR [7]; HaCaT (human keratinocytes), with MTX 1 μM, auranofin 2 h, then 200 μM sepiapterin 3 h, listed as Auranofin, read-out: SPR IC50, HaCaT cells) was 10.7 µM. The IC50 (SPR [7]; HaCaT (human keratinocytes), with MTX 1 μM, auranofin 2 h, then 200 μM sepiapterin 3 h, read-out: SPR IC50, HaCaT cells) was 10.7 ± 0.9 µM, the “time of pretreatment to maximum inhibition of cellular SPR” value (SPR [7]; HaCaT cells with methotrexate, 20 μM auranofin) was 2 h and the IC50 (SPR [7]; Jurkat (human leukemia), with methotrexate, read-out: SPR IC50, Jurkat cells) was 7.2 ± 0.17 µM. It also gave an IC50 (SPR [7]; SKNMC (human neuroblastoma), with methotrexate, read-out: SPR IC50, SKNMC cells) of 17.7 ± 1.54 µM.
